Measured values published in patent publication US20260116865A1, “PHOSPHOR FOR DETECTING FIRE BLIGHT PATHOGEN AND USE THEREOF” (UNIVERSITY-INDUSTRY COOPERATION GROUP OF KYUNG HEE …, priority 2023, published 2026).

Key:
E. amylovora [1] = test: Staining ability for E. amylovora, confocal laser scanning microscopy; format: cell-based, Erwinia amylovora; conditions: B-1 30 μM with DAPI 300 nM in PBS, 1 hour
Protocol: Specifically, E. amylovora obtained as described in Example 2 was stained by reacting with 30 μM of B-1 in phosphate-buffered saline (PBS) for 1 hour. To visualize […] E. amylovora, a counterstain with 300 nM of 4′,6-diamidino-2-phenylindole (DAPI) was applied simultaneously. The stained E. amylovora was then washed three times with PBS to remove residual B-1 and DAPI, followed by heat fixation and mounting on a slide glass for imaging using a confocal laser scanning microscope (Carl Zeiss, Germany). During confocal microscopy, differential interference contrast (DIC) images were also captured. The wavelengths used for imaging were as follows: [DAPI] excitation wavelength: 405 nm, emission wavelength: 410-530 nm, [B-1] excitation wavelength: 561 nm, emission wavelength: 600-700 nm.

[2] = Absorption and fluorescence properties of B-1 in aqueous solution; format: physicochemical
Protocol: (§1) To evaluate the absorption and fluorescence properties of the phosphor compound B-1 synthesized in Example 1, the changes in the absorption and fluorescence spectra of B-1 were measured in aqueous solution and in the presence of Erwinia amylovora, the causal pathogen of fire blight in fruit trees, and the results are shown in FIG. 2.
(§2) Specifically, the E. amylovora used in the experiment was cultured overnight at 26° C. in Luria-Bertani (LB) liquid medium. After cultivation, E. amylovora was harvested by centrifugation at 10,000 ref. First, B-1 was added, and its absorption and fluorescence spectra were analyzed in aqueous solution. Then, E. amylovora (4.3×10^8 CFU) was added to the aqueous solution containing B-1, and the changes in the absorption and fluorescence spectra were analyzed. A UV/Vis spectrophotometer (Agilent, USA) was used to analyze the absorbance spectra, and a fluorescence spectrophotometer (SHIMADZU CORP. RF-6000, Japan) was used for fluorescence spectra analysis. For all spectral measurements, a standard quartz cell with a path length of 1 cm (Hellma Analytics, Germany) was used.
(§3) The measurement results are shown in FIG. 2, where the absorption and fluorescence spectra of B-1 (10 μM) in aqueous solution are represented by a dashed line, and those in the presence of E. amylovora are represented by a solid line.

Erwinia amylovora = test: Absorption and fluorescence change of B-1 in the presence of E. amylovora; format: cell-based; conditions: B-1 10 μM, E. amylovora 4.3×10^8 CFU
Protocol: as §1, §2, §3

E. amylovora [3] = test: Fluorescence response of B-1 according to concentration of E. amylovora; format: cell-based, Erwinia amylovora; conditions: B-1 10 μM, E. amylovora 2×10^6 to 4×10^8 CFU/mL in DI H2O, excitation 550 nm
Protocol: Specifically, to determine the concentration of E. amylovora obtained as described in Example 2, absorbance at 600 nm was measured (OD600 0.1=1×10^8 cells). E. amylovora was then diluted in DI H2O to concentrations ranging from 2×10^6 to 4×10^8 CFU/mL, and each dilution was reacted with 10 μM of B-1. Fluorescence intensity at 686 nm was recorded after excitation at 550 nm, and plotted on a graph.

E. amylovora [4] = test: Limit of detection of B-1 for E. amylovora; format: cell-based, Erwinia amylovora; conditions: B-1 5 μM in DI H2O, emission 686 nm, excitation 551 nm, serially diluted E. amylovora
Protocol: E. amylovora was serially diluted and reacted with the phosphor compound B-1 synthesized in Example 1 to evaluate its minimum detection capability, and the results are shown in FIG. 4.
Specifically, quantified E. amylovora, as prepared in Example 3, was reacted with 5 μM of B-1 in DI H2O. Fluorescence intensity was then measured at 686 nm with an excitation wavelength of 551 nm, and the results were plotted on a graph.

E. amylovora [5] = test: Time-dependent detection capability of B-1 for E. amylovora; format: cell-based, Erwinia amylovora; conditions: B-1 10 μM, E. amylovora 10^8 CFU/mL in DI H2O, 686 nm, excitation 550 nm, monitored up to 40 minutes
Protocol: Specifically, 10 μM of B-1 was reacted with E. amylovora at a concentration of 10^8 CFU/mL, quantified as described in Example 3, in DI H2O. Fluorescence changes were monitored at 686 nm with 550 nm excitation for up to 40 minutes.

E. amylovora [6] = test: Detection of E. amylovora on plant surfaces (spraying method), immature apples and apple blossoms; set-up: species or system Erwinia amylovora; conditions: 100 μM B-1 sprayed twice, 365 nm flashlight
Protocol: To evaluate whether E. amylovora present on actual plant surfaces could be detected using the phosphor compound B-1 synthesized in Example 1, a spraying-based detection was performed by applying B-1 to tissues (organs: fruits and blossoms) of a Fuji apple tree, and the procedure and results are shown in FIG. 7.
Specifically, to simulate plants infected with fire blight in fruit trees, E. amylovora quantified as described in Example 3 at concentrations of 10^2 to 10^8 CFU/mL was applied to immature apples (fruits) and apple blossoms using a brush, as shown in FIG. 7a. To allow E. amylovora to adhere to the plant surface, the samples were air-dried for 10 minutes. For detection, a 100 μM solution of B-1 diluted in […] was sprayed twice, and 10 minutes later, fluorescence changes were observed under a 365 nm flashlight.

E. amylovora [7] = test: Detection of E. amylovora on apple tree tissues (spray and swab methods); set-up: species or system Erwinia amylovora; conditions: tissue incubated with E. amylovora 10^8 CFU/mL
Protocol: Detection of E. amylovora on each plant tissue was then attempted by either spraying with a 100 μM solution of B-1 or swabbing with a cotton swab soaked in B-1 solution. Fluorescence changes were observed under a 365 nm flashlight.

E. amylovora [8] = test: Detection of E. amylovora on agricultural tool surfaces (spraying); set-up: species or system Erwinia amylovora; conditions: 100 μM B-1 sprayed twice, 365 nm flashlight
Source text: To evaluate whether the phosphor compound B-1 synthesized in Example 1 could detect E. amylovora present on objects, a spraying-based detection method was employed. As the test object, farming tools, which are known to be one of the causes of cross-contamination from infected plants in orchards, were used.
Specifically, to simulate farming tools exposed to E. amylovora, pruning shears and a trowel were either used to cut fire blight-infected plants directly or rubbed in soil contaminated with E. amylovora, as shown in FIG. 9a. Detection of E. amylovora was carried out by spraying 100 μM of B-1 solution twice onto the tool surfaces, and fluorescence images were captured under a 365 nm flashlight.

maximum absorption ([2]; B-1 10 μM in aqueous solution) [nm] | fluorescence in aqueous solution ([2]; B-1 10 μM, aqueous solution, excitation 550 nm) | SMILES | staining of E. amylovora (confocal fluorescence) (E. amylovora [1]) | change of absorption spectrum upon addition of E. amylovora (Erwinia amylovora) | wavelength of highest fluorescence increase (Erwinia amylovora; excitation 550 nm) [nm] | fluorescence change upon addition of E. amylovora (Erwinia amylovora; excitation 550 nm, compared to aqueous condition alone) | fluorescence intensity at 686 nm versus E. amylovora concentration (E. amylovora [3]) | lowest detectable concentration of E. amylovora (E. amylovora [4]) | time to rapid fluorescence increase (E. amylovora [5]) [min] | lowest detectable level of E. amylovora on actual plant surfaces (E. amylovora [6]; ImageJ quantification) | red fluorescence on immature apples and apple blossoms (E. amylovora [6]; E. amylovora 10^2 to 10^8 CFU/mL brushed on, 10 minutes) | fluorescence on infected apple twigs, spraying (E. amylovora [7]; 100 μM B-1 sprayed, 365 nm flashlight) | fluorescence of B-1-soaked swab rubbed onto infected apple blossoms and leaves (E. amylovora [7]; cotton swab soaked with B-1, 365 nm flashlight) | fluorescence of contaminated areas of pruning shears and trowel (E. amylovora [8])
– | – | N=C(N)c1ccc(-c2cc3ccc(C(=N)N)cc3[nH]2)cc1 [DAPI, 4′,6-diamidino-2-phenylindole, reference compound] | fluorescence signals were observed | – | – | – | – | – | – | – | – | – | – | –
550 | little to no fluorescence | CN(C)c1ccc2cc3cc(C(=C(C#N)C#N)c4ccccc4)oc3cc2c1 [Compound B-1] | capable of staining live E. amylovora and produces strong red fluorescence | slight overall increase | 686 | significant enhancement | increased in proportion to the concentration of E. amylovora | 10^2 CFU/mL | ≤ 10 | 10^2 CFU/mL | red fluorescence was observed for all concentrations | red fluorescence was observed | red fluorescence was emitted from the swab | emitted red fluorescence
